Blank lines part the entries; values can stand above or below the molecule they belong to.
Legend:
NCI-H1975 = test: Antiproliferative activity against human NCI-H1975 cells harboring EGFR L858R/T790M mutant after 72 hrs by MTT assay; type: functional, cell-based; conditions: NCI-H1975, 72 h
A-431 = test: Antiproliferative activity against human A431 cells harboring wild-type EGFR after 72 hrs by MTT assay; type: functional, cell-based; conditions: A-431, 72 h
[1] = target: T1, Epidermal growth factor receptor (Homo sapiens, UniProt P00533); test: Inhibition of recombinant human GST-tagged wild-type EGFR cytoplasmic domain (668 to 1210 residues) expressed in baculovirus expression system using tyrosine04 peptide as substrate after 60 mins in presence of ATP by Z-LYTE assay
T1 sequence (P00533 whole entry, the tested form may be a part): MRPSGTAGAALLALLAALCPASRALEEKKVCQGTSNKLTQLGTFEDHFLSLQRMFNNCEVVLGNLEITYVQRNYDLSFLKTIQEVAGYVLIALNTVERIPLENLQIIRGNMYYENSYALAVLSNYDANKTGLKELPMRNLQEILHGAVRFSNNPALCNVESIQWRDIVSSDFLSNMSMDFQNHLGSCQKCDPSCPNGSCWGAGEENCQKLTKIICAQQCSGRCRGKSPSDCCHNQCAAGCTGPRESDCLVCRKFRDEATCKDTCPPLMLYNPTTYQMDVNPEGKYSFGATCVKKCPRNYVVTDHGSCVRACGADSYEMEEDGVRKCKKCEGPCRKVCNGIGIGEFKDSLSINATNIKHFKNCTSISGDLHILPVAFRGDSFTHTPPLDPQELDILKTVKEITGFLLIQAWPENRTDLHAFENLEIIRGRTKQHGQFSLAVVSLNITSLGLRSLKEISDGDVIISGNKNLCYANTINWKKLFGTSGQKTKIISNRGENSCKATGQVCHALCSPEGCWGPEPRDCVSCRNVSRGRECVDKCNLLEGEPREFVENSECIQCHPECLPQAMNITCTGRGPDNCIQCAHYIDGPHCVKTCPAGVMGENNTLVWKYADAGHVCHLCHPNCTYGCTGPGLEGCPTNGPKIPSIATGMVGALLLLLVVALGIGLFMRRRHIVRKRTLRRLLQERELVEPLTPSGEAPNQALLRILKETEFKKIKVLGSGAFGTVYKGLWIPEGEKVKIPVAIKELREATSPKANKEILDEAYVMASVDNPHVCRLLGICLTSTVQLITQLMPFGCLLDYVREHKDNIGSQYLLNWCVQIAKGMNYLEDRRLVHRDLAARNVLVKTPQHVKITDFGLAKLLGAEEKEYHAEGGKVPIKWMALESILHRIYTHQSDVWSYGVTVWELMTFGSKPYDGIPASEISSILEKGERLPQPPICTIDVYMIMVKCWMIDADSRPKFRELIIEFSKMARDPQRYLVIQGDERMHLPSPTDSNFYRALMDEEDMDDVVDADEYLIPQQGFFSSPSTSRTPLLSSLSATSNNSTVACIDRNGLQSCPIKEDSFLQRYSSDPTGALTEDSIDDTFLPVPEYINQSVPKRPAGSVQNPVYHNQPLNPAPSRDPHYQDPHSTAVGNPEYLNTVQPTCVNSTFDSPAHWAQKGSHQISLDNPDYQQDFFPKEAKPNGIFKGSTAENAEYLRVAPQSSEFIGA

[2] = target: T2, Epidermal growth factor receptor (Homo sapiens, UniProt P00533, L858R/T790M); test: Inhibition of EGFR L858R/T790M mutant phosphorylation in human NCI-H1975 cells after 1 hr by ELISA; type: cell-based
T2 sequence (P00533 25-1210 T790M/L858R limits assumed): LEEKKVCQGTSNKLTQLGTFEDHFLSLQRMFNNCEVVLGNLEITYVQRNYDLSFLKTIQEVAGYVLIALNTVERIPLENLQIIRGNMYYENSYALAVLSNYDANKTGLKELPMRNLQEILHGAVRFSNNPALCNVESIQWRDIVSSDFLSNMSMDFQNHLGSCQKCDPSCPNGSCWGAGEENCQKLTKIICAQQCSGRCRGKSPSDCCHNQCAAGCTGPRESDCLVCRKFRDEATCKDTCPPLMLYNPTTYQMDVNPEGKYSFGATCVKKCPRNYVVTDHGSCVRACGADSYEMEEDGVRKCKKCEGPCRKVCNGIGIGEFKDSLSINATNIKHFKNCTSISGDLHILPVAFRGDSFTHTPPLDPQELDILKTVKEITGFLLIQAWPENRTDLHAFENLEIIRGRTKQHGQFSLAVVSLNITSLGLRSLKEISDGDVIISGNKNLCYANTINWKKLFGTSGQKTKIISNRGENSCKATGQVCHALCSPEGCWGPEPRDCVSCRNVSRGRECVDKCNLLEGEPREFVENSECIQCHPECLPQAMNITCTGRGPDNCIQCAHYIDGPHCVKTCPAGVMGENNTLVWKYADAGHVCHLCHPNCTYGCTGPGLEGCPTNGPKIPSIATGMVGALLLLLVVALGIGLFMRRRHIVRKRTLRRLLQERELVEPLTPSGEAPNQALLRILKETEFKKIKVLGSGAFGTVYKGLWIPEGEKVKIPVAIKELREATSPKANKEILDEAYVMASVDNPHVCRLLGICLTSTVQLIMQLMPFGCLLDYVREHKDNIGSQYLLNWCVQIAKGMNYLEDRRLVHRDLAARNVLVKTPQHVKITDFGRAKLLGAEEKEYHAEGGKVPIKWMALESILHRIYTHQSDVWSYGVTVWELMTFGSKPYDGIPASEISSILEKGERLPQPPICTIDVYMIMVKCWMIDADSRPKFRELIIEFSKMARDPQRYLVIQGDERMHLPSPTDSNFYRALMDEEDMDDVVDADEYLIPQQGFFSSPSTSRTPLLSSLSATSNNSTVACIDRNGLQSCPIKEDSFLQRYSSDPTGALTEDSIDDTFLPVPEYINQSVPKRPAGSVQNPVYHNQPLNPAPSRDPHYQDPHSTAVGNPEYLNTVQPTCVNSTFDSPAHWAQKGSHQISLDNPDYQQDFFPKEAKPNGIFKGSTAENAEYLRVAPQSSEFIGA

[3] = target: T1, Epidermal growth factor receptor; test: Inhibition of wild-type EGFR phosphorylation in human A431 cells preincubated for 1 hr followed by EGF stimulation measured after 45 mins by ELISA; type: cell-based
[4] = target: T2, Epidermal growth factor receptor; test: Inhibition of recombinant human GST-tagged EGFR L858R/T790M mutant cytoplasmic domain (668 to 1210 residues) expressed in baculovirus expression system using tyrosine04 peptide as substrate after 60 mins in presence of ATP by Z-LYTE assay
[5] = Selectivity ratio of IC50 for human A431 cells harboring wild-type EGFR to IC50 for human NCI-H1975 cells harboring EGFR L858R/T790M mutant; type: functional

IC50 (NCI-H1975): 27 nM | IC50 (A-431): 1240 nM
SMILES: C=CC(=O)Nc1cccc(Oc2nc(Nc3ccc(N4CCN(C)CC4)cc3OC)ncc2Cl)c1

SMILES: C=CC(=O)Nc1cccc(Oc2nc(Nc3ccc(N4CCN(C(C)=O)CC4)cc3OC)ncc2C(F)(F)F)c1
IC50 [1]: 67 nM | IC50 [2]: 132 nM | IC50 [3]: 1030 nM | IC50 (NCI-H1975): 117 nM | IC50 (A-431): 2530 nM | IC50 [4]: 7 nM

SMILES: C=CC(=O)Nc1cccc(NC(=O)N(C)c2ccnc(Nc3ccc(N4CCN(C)CC4)cc3OC)n2)c1
IC50 [1]: > 1000 nM | IC50 [4]: > 1000 nM

SMILES: C=CC(=O)Nc1cccc(NC(=O)Nc2ccnc(Nc3ccc(N4CCC(N5CCN(C)CC5)CC4)cc3OC)n2)c1
IC50 [1]: 80 nM | IC50 [2]: 105 nM | IC50 [3]: 2340 nM | IC50 (NCI-H1975): 106 nM | IC50 [4]: 5 nM

SMILES: C=CC(=O)Nc1cccc(NC(=O)Nc2ccnc(Nc3ccc(N4CCC(N(C)C)CC4)cc3OC)n2)c1
IC50 [1]: 45 nM | IC50 [2]: 82 nM | IC50 [3]: 1540 nM | IC50 (NCI-H1975): 107 nM | IC50 (A-431): 3380 nM | IC50 [4]: 2 nM

SMILES: C=CC(=O)Nc1cccc(NC(=O)Nc2ccnc(Nc3ccc(N(C)CCN(C)C)cc3OC)n2)c1
IC50 [1]: 49 nM | IC50 [2]: 430 nM | IC50 [3]: 1700 nM | IC50 (NCI-H1975): 502 nM | IC50 (A-431): 3400 nM | IC50 [4]: 19 nM

SMILES: C=CC(=O)Nc1cccc(NC(=O)Nc2ccnc(Nc3ccc(N(C)C)cc3)n2)c1
IC50 [1]: 462 nM | IC50 [4]: 170 nM

SMILES: C=CC(=O)Nc1cccc(NC(=O)Nc2ccnc(Nc3ccc(C4CCN(C)CC4)cc3)n2)c1
IC50 [1]: > 1000 nM | IC50 [4]: 510 nM

SMILES: C=CC(=O)Nc1cccc(NC(=O)Nc2ccnc(Nc3ccc(N4CCC(N5CCOCC5)CC4)cc3OC)n2)c1
IC50 [1]: 86 nM | Ratio IC50 [5]: >270 | IC50 [2]: 41 nM | IC50 [3]: 6460 nM | IC50 (NCI-H1975): 37 nM | IC50 (A-431): > 10000 nM | IC50 [4]: 4 nM

SMILES: C=CC(=O)Nc1cccc(NC(=O)Nc2ccnc(Nc3ccc(C(=O)N4CCN(C)CC4)cc3OC)n2)c1
IC50 [1]: 972 nM | IC50 [4]: 215 nM

SMILES: C=CC(=O)Nc1cccc(NC(=O)Nc2nc(Nc3ccc(N4CCC(N5CCOCC5)CC4)cc3OC)ncc2C(F)(F)F)c1
IC50 [1]: > 1000 nM | IC50 [4]: 270 nM

SMILES: C=CC(=O)Nc1cccc(NC(=O)Nc2ccnc(Nc3ccc(C4CCN(C)CC4)cc3OC)n2)c1
IC50 [1]: 273 nM | IC50 [2]: 130 nM | IC50 [3]: 5000 nM | IC50 (NCI-H1975): 75 nM | IC50 (A-431): > 10000 nM | IC50 [4]: 28 nM

SMILES: C=CC(=O)Nc1cccc(NC(=O)Nc2nc(Nc3ccc(N4CCC(N5CCOCC5)CC4)cc3OC)ncc2Cl)c1
IC50 [1]: 641 nM | IC50 [2]: 131 nM | IC50 [3]: 2210 nM | IC50 (NCI-H1975): 199 nM | IC50 (A-431): 2590 nM | IC50 [4]: 37 nM

SMILES: C=CC(=O)Nc1cccc(NC(=O)C(C)(C)c2ccnc(Nc3ccc(N4CCN(C)CC4)cc3OC)n2)c1
IC50 [1]: > 1000 nM | IC50 [4]: > 1000 nM

SMILES: C=CC(=O)Nc1cccc(NC(=O)Nc2ccnc(Nc3ccc(N4CCOCC4)cc3OC)n2)c1
IC50 [1]: 225 nM | IC50 [2]: 218 nM | IC50 [3]: > 10000 nM | IC50 (NCI-H1975): 173 nM | IC50 [4]: 15 nM

SMILES: C=CC(=O)Nc1cccc(NC(=O)Nc2ccnc(Nc3ccc(N4CCN(C)CC4)cc3)n2)c1
IC50 [1]: 143 nM | IC50 [2]: 3150 nM | IC50 (NCI-H1975): 1930 nM | IC50 [4]: 48 nM

SMILES: C=CC(=O)Nc1cccc(NC(=O)Nc2ccnc(Nc3ccc(N4CCOCC4)cc3)n2)c1
IC50 [1]: 644 nM | IC50 [2]: > 10000 nM | IC50 [3]: > 10000 nM | IC50 (NCI-H1975): 7520 nM | IC50 (A-431): > 10000 nM | IC50 [4]: 87 nM

SMILES: C=CC(=O)Nc1cccc(NC(=O)Nc2ccnc(Nc3ccccc3OC)n2)c1
IC50 [1]: > 1000 nM | IC50 [4]: 192 nM

SMILES: C=CC(=O)Nc1cccc(NC(=O)Nc2ccnc(Nc3ccc(N4CCN(CCF)CC4)cc3OC)n2)c1
IC50 [1]: 158 nM | IC50 [2]: 511 nM | IC50 [3]: > 10000 nM | IC50 (NCI-H1975): 519 nM | IC50 [4]: 22 nM

SMILES: C=CC(=O)Nc1cccc(NC(=O)Nc2ccnc(Nc3ccc(OC)cc3OC)n2)c1
IC50 [1]: 348 nM | IC50 [2]: 391 nM | IC50 (NCI-H1975): 467 nM | IC50 [4]: 58 nM

SMILES: C=CC(=O)Nc1cccc(NC(=O)Nc2ccnc(Nc3ccc(OCCOC)cc3)n2)c1
IC50 [1]: > 1000 nM | IC50 [4]: 266 nM

IC50 (NCI-H1975): 31 nM | IC50 (A-431): 2010 nM
SMILES: C=CC(=O)Nc1cccc(NC(=O)Nc2ccnc(Nc3ccc(N4CCC(N(CC)CC)CC4)cc3OC)n2)c1

SMILES: C=CC(=O)NC1CCCN(C(=O)Nc2ccnc(Nc3ccc(N4CCN(C)CC4)cc3OC)n2)C1 (centres undefined)
IC50 [1]: > 1000 nM | IC50 [4]: > 1000 nM

SMILES: C=CC(=O)Nc1cccc(NC(=O)Nc2ccnc(Nc3ccc(N4CCN(C)CC4)cc3OC)n2)c1
IC50 [1]: 17 nM | IC50 [2]: 906 nM | IC50 (NCI-H1975): 525 nM | IC50 [4]: 17 nM

SMILES: C=CC(=O)Nc1cccc(NC(=O)Nc2ccnc(Nc3ccc(C(=O)N4CCOCC4)cc3OC)n2)c1
IC50 [1]: > 1000 nM | IC50 [4]: 128 nM

SMILES: C=CC(=O)Nc1cccc(NC(=O)Nc2ccnc(Nc3ccc(N(CC)CC)cc3OC)n2)c1
IC50 [1]: 183 nM | IC50 [2]: 112 nM | IC50 [3]: > 10000 nM | IC50 (NCI-H1975): 86 nM | IC50 (A-431): > 10000 nM | IC50 [4]: 12 nM

SMILES: C=CC(=O)Nc1cccc(NC(=O)C2(C(=O)Nc3ccnc(Nc4ccc(N5CCN(C)CC5)cc4OC)n3)CC2)c1
IC50 [1]: > 1000 nM | IC50 [4]: > 1000 nM

Source: ChEMBL document CHEMBL4219138, “Discovery of N-aryl-N'-pyrimidin-4-yl ureas as irreversible L858R/T790M mutant selective epidermal growth factor receptor inhibitors” (Bioorg Med Chem Lett, 2018)
